# Key:
# [1] = tolerability and absorption of Compound A from transdermal patches; format: in vivo
# Experimental: The transdermal devices of the invention in general have, for example an effective contact area of pharmaceutical composition on the skin of from about 1 to about 80 square centimeters, preferably about 10 square centimeters, and are intended to be applied at intervals of about once every 1 to 7 days, preferably 1-3 days. […] Compound A may, for example be administered at a dose of 8 mg in a patch of ca. 10 cm^2, once every day. The patch may be applied, for example on the abdomen, thigh, behind an ear, or on a shoulder or upper arm.
# (§1) Higher dosages are possible, for example 4.5 mg twice daily and even 6 mg twice daily. Tolerability is seen to be even better for the transdermal device, wherein 24 mg were absorbed in 24 hours.
# [2] = degradation testing of Compound A and of the prior-art transdermal composition; format: physicochemical; conditions: particularly in the presence of oxygen; prior-art composition in occlusive polymer matrix and air-tight packaging
# [3] = tolerability of Compound A given orally; format: in vivo; conditions: oral, initial dose 1.5 mg twice a day, stepped up to 3 mg twice daily in week 2
# Experimental: as §1
structure (smiles),measurement,setting,value
CCN(C)C(=O)Oc1cccc([C@H](C)N(C)C)c1 [Compound A],tolerability of transdermal device compared with oral,"[1]; transdermal device, 24 mg absorbed in 24 hours",even better
same,amount absorbed,"[1]; transdermal device, in 24 hours",24 mg
same,tolerability,"[1]; transdermal, 36 mg free base in up to 80 cm^2 of patches",well tolerated
same,amount absorbed,"[1]; transdermal, patches up to 80 cm^2 containing 36 mg compound A",12 mg
same,susceptibility to degradation,[2],susceptible to degradation
same,tolerability,[3],well tolerated
